{"source": "paper PMC8205030", "about": "“Methoxy and bromo scans on N-(5-methoxyphenyl) methoxybenzenesulphonamides reveal potent cytotoxic compounds, especially against the human breast adenocarcinoma MCF7 cell line” (Journal of Enzyme Inhibition and Medicinal Chemistry, 2021)", "key": {"[1]": {"test_system": "HeLa (human cervical carcinoma) cells", "test": "Cell growth assay (XTT), HeLa", "format": "cell-based", "conditions": "72 h drug exposure, read-out: Antiproliferative activity IC50 HeLa", "procedure,_shortened": "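Cells (1.5 × 10^4 cells/mL for MCF7, HeLa, HEK293; 3 × 10^4 cells/mL for HT-29) attached 24 h, then treated 72 h at 37 °C, 5% CO2. Screened at 1 µM; IC50 versus untreated controls from 10^−5 to 10^−10 M by nonlinear fit. XTT/PMS absorbance at 450 nm after 4 h (MCF7, HeLa) or 6 h (HT-29, HEK293); HT-29 with 10 µM verapamil.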"}, "HT-29 cells [2]": {"test_system": "HT-29 cells", "test": "Apoptotic cell death quantification (Annexin V-FITC/PI), HT-29", "format": "cell-based, human", "conditions": "for Early apoptosis / Late apoptosis / Live (AnV–/PI–) / Necrosis: 72 h; for Apoptotic response: HT-29, 72 h", "method": "MCF7, HeLa, and HT-29 apoptotic cells were quantified using an Annexin V-FITC/PI apoptosis detection kit (Immunostep, Salamanca, Spain) according to the manufacturer’s guidelines. 1.5 ml/well of cells in the exponential growth phase at 2 × 10^4 cells/mL were seeded onto 12-well plates and left to attach overnight. After 24 h incubation, cells were treated with compound 25 at 87.5 or 175 nM. 72 h post-treatment, attached and floating cells of treated and untreated wells were collected, centrifuged, resuspended in the Annexin V binding buffer, and stained with Annexin V-FITC/PI. Cells were then incubated in darkness at room temperature for 15 min and a total of 30,000 cells were acquired and analysed using the BD Accuri™ C6 Plus Flow Cytometer and Software (version 1.0.264.21, BD Biosciences, San José, CA, USA), respectively. Compounds were dissolved in DMSO and the final solvent concentrations never exceeded 0.5% (v/v). Control wells included cells with 0.5% (v/v) DMSO."}, "[3]": {"test_system": "HEK293 (human embryonic kidney) cells", "test": "Cell growth assay (XTT), non-tumorigenic HEK293", "format": "cell-based", "method": "The presence of mycoplasma was routinely checked with MycoAlert kit (Lonza-Cambrex) and only mycoplasma-free cells were used in the experiments. Tumour cell lines were kindly provided by Dr Faustino Mollinedo from Centro de Investigaciones Biológicas Margarita Salas, Madrid, Spain. To determine cell growth, cells in exponential growth phase were seeded (100 µL/well in 96-well plates) with appropriate cell concentration (1.5 × 10^4 cells/mL for MCF7, HeLa and HEK-293 and 3 × 10^4 cells/mL for HT-29) in complete DMEM or RPMI 1640 medium (see above) at 37 °C and 5% CO2 atmosphere. After 24 h incubation, to allow cells to attach to the plates, all compounds were added at 1 µM concentration (10 µL/well in 96-well plates) and the effect on the proliferation was evaluated 72 h post-treatment. Compounds showing antiproliferative effects at tested concentration were selected for IC50 calculation (50% inhibitory concentration compared to the untreated controls) from 10^−5 to 10^−10 M concentration. Nonlinear curves fitting the experimental data were carried out for each compound. […] A freshly prepared mixture solution of XTT labelling reagent with 0.02% (v/v) PMS (N-methyl-dibenzopyrazine methyl sulfate) electron coupling reagent was added to cells (50 µL/well in 96-well plates, the total volume of 160 µL/well) and were incubated during the corresponding time according to each cell line (4 h for MCF7 and HeLa and 6 h for HT-29 and HEK-293) in a humidified atmosphere (37 °C, 5% CO2). The absorbance of the formazan product generated was measured at a test wavelength of 450 nm using a multi-well plate reader (Ultra Evolution, Tecan, Männedorf, Suiza). Compounds were dissolved in DMSO and the final solvent concentrations never exceeded 0.5% (v/v). The control wells included treated cells with 0.5% (v/v) DMSO and the positive control. 10 µM verapamil was included as a control for the HT-29 cell line. Measurements were performed in triplicate, and each experiment was repeated three times."}, "HT-29 cells [4]": {"test_system": "HT-29 cells", "test": "Cell cycle analysis (PI, flow cytometry), HT-29", "format": "cell-based, human", "method": "MCF7, HeLa, and HT-29 cell cycle analyses were performed by quantifying the DNA content by flow cytometry. Cells in the exponential growth phase at 2 × 10^4 cells/mL were seeded in 24-well plates (1 ml/well). After 24 h incubation, cells were treated with compound 25 at 87.5 or 175 nM. After 24, 48, and 72 h treatments, live and dead cells were collected and fixed in ice-cold ethanol:PBS (7:3) and stored at 4 °C for later use. Cells were rehydrated with phosphate-buffered saline (PBS), treated with 100 µg/mL RNase A (Sigma-Aldrich Co., St. Louis, MO, USA), and stained overnight in darkness at room temperature with 50 µg/mL propidium iodide (PI) (Sigma-Aldrich Co.). Cell cycle profiles were then analysed by flow cytometry using BD Accuri™ C6 Plus Flow Cytometer (BD Biosciences, San José, CA, USA). Data were analysed with BD Accuri™ C6 Software (version 1.0.264.21, BD Biosciences, San José, CA, USA) and compared to control cells treated with 0.5% (v/v) DMSO. Compounds were dissolved in DMSO and the final solvent concentrations never exceeded 0.5% (v/v)."}, "[5]": {"conditions": "HT-29, 48 h, concentration not specified"}}}
{"molecule": "COc1ccc(S(=O)(=O)N(CC#N)c2cc(OC)c(Br)cc2OC)cc1", "note": "[Compound 25, N-(4-bromo-2,5-dimethoxyphenyl)-N-(cyanomethyl)-4-methoxybenzenesulphonamide]", "values": [{"measurement": "IC50", "setting": "[1]", "result": 36, "unit": "nM"}, {"measurement": "Early apoptosis", "setting": "HT-29 cells [2]; HT-29, 87.5 nM", "result": 16.4, "unit": "%"}, {"measurement": "Late apoptosis", "setting": "HT-29 cells [2]; HT-29, 87.5 nM", "result": 6.8, "unit": "%"}, {"measurement": "Live (AnV–/PI–)", "setting": "HT-29 cells [2]; HT-29, 87.5 nM", "result": 76.2, "unit": "%"}, {"measurement": "Necrosis", "setting": "HT-29 cells [2]; HT-29, 87.5 nM", "result": 0.7, "unit": "%"}, {"measurement": "Early apoptosis", "setting": "HT-29 cells [2]; HT-29, 175 nM", "result": 20.4, "unit": "%"}, {"measurement": "Late apoptosis", "setting": "HT-29 cells [2]; HT-29, 175 nM", "result": 15.3, "unit": "%"}, {"measurement": "Live (AnV–/PI–)", "setting": "HT-29 cells [2]; HT-29, 175 nM", "result": 61.7, "unit": "%"}, {"measurement": "Necrosis", "setting": "HT-29 cells [2]; HT-29, 175 nM", "result": 2.5, "unit": "%"}, {"measurement": "Apoptotic response", "setting": "HT-29 cells [2]; lower end of printed span (87.5 nM)", "result": 23, "unit": "%"}, {"measurement": "Apoptotic response", "setting": "HT-29 cells [2]; upper end of printed span (175 nM)", "result": 36, "unit": "%"}, {"measurement": "Selectivity index HEK293 vs HeLa and MCF7 tumour cells", "setting": "[3]", "result": "0.5 to 2", "unit": "fold"}, {"measurement": "IC50", "setting": "[3]; Homo sapiens, HEK293, non-tumorigenic cell line, 72 h, XTT, read-out: Antiproliferative activity IC50 HEK293", "result": 45, "unit": "nM"}, {"measurement": "Cells at G2/M phase", "setting": "HT-29 cells [4]; HT-29, 87.5 nM, 24 h", "result": 90, "unit": "%"}, {"measurement": "Cells at G2/M phase", "setting": "HT-29 cells [4]; HT-29, 87.5 nM, 72 h", "result": 58, "unit": "%"}, {"measurement": "subG0/G1 population", "setting": "HT-29 cells [4]; HT-29, 87.5 nM, 72 h", "result": 23, "unit": "%"}, {"measurement": "Cells at G2/M phase", "setting": "HT-29 cells [4]; HT-29, 175 nM, 24 h", "result": 83, "unit": "%"}, {"measurement": "Cells at G2/M phase", "setting": "HT-29 cells [4]; HT-29, 175 nM, 72 h", "result": 54, "unit": "%"}, {"measurement": "subG0/G1 population", "setting": "HT-29 cells [4]; HT-29, 175 nM, 72 h", "result": 31, "unit": "%"}, {"measurement": "Cells at G2/M phase", "setting": "HT-29 cells [4]; [5]", "result": 84, "unit": "%"}, {"measurement": "subG0/G1 population", "setting": "HT-29 cells [4]; [5]", "result": 9, "unit": "%"}]}
